Assay results reported in the supplement of paper PMC10307832.

Experiments:
Assay in all cases: relative viability (nuclei count vs DMSO), 5 days (fraction); higher = more cells survive
VE-821 + Alpelisib = compound: CS(=O)(=O)c1ccc(-c2cnc(N)c(C(=O)Nc3ccccc3)n2)cc1 [VE-821] + Cc1nc(NC(=O)N2CCC[C@H]2C(N)=O)sc1-c1ccnc(C(C)(C)C(F)(F)F)c1 [Alpelisib] (partner 2 µM)
Outline: (§1)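 Lung cancer cell lines in 1536-well plates got either a single drug or a fixed anchor-drug dose together with five library-drug doses (not always all listed) in √10 steps, by pin tool, on the day after seeding. Nuclei were counted after 5 days, and relative viability is the treated-to-vehicle ratio of nuclei counts. Values are medians of duplicate plates.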

Vismodegib + Pemetrexed = compound: CS(=O)(=O)c1ccc(C(=O)Nc2ccc(Cl)c(-c3ccccn3)c2)c(Cl)c1 [Vismodegib] + Nc1nc2[nH]cc(CCc3ccc(C(=O)N[C@@H](CCC(=O)O)C(=O)O)cc3)c2c(=O)[nH]1 [Pemetrexed] (partner 0.2 µM)
Outline: as §1

VE-821 + Dasatinib = compound: CS(=O)(=O)c1ccc(-c2cnc(N)c(C(=O)Nc3ccccc3)n2)cc1 [VE-821] + Cc1nc(Nc2ncc(C(=O)Nc3c(C)cccc3Cl)s2)cc(N2CCN(CCO)CC2)n1 [Dasatinib] (partner 0.075 µM)
Outline: as §1

Vismodegib + OSI-027 = compound: CS(=O)(=O)c1ccc(C(=O)Nc2ccc(Cl)c(-c3ccccn3)c2)c(Cl)c1 [Vismodegib] + COc1cccc2cc(-c3nc([C@H]4CC[C@H](C(=O)O)CC4)n4ncnc(N)c34)[nH]c12 [OSI-027] (partner 0.5 µM)
Outline: as §1

Row | Cell Line | relative viability (VE-821 + Alpelisib; first compound 0.08 µM) | relative viability (VE-821 + Alpelisib; first compound 0.253 µM) | relative viability (VE-821 + Alpelisib; first compound 2.53 µM) | relative viability (VE-821 + Alpelisib; first compound 8 µM) | relative viability (Vismodegib + Pemetrexed; first compound 0.08 µM) | relative viability (Vismodegib + Pemetrexed; first compound 0.253 µM) | relative viability (Vismodegib + Pemetrexed; first compound 0.8 µM) | relative viability (Vismodegib + Pemetrexed; first compound 2.53 µM) | relative viability (Vismodegib + Pemetrexed; first compound 8 µM) | relative viability (VE-821 + Dasatinib; first compound 0.08 µM) | relative viability (VE-821 + Dasatinib; first compound 0.253 µM) | relative viability (VE-821 + Dasatinib; first compound 0.8 µM) | relative viability (VE-821 + Dasatinib; first compound 2.53 µM) | relative viability (VE-821 + Dasatinib; first compound 8 µM) | relative viability (Vismodegib + OSI-027; first compound 0.08 µM) | relative viability (Vismodegib + OSI-027; first compound 0.253 µM) | relative viability (Vismodegib + OSI-027; first compound 0.8 µM) | relative viability (Vismodegib + OSI-027; first compound 2.53 µM) | relative viability (Vismodegib + OSI-027; first compound 8 µM) | relative viability (VE-821 + Alpelisib; first compound 0.8 µM)
1 | NCI-H520 | 0.953 | 1.1 | 0.883 | 0.784 | 0.743 | 0.619 | 0.827 | 0.709 | 0.666 | 0.232 | 0.23 | 0.166 | 0.298 | 0.165 | 0.284 | 0.227 | 0.298 | 0.314 | 0.309 | –
2 | NCI-H1355 | 0.911 | 0.803 | 0.8 | 0.531 | 0.985 | 1.06 | 0.959 | 1.02 | 1.01 | 0.748 | 0.65 | 0.609 | 0.627 | 0.575 | 0.488 | 0.447 | 0.378 | 0.444 | 0.399 | 0.562
3 | NCI-H1563 | 0.896 | 0.933 | 0.805 | 0.797 | 0.458 | 0.806 | 0.767 | 0.762 | 0.839 | 0.449 | 0.483 | 0.405 | 0.456 | 0.453 | 0.757 | 0.734 | 0.767 | 0.694 | 0.809 | 0.739
4 | NCI-H1651 | 1.09 | 1.08 | 1.01 | 0.849 | 0.518 | 0.65 | 0.594 | 0.473 | 0.48 | 0.471 | 0.46 | 0.424 | 0.437 | 0.323 | 0.658 | 0.774 | 0.543 | 0.771 | 0.703 | 0.702
5 | HCC-44 | 0.83 | 0.807 | 1.03 | 0.885 | 0.663 | 0.629 | 0.616 | 0.638 | 0.677 | – | – | – | – | – | 0.532 | 0.482 | 0.453 | 0.526 | 0.611 | 0.717
6 | NCI-H1437 | 1.02 | 0.901 | 0.993 | 0.705 | 0.297 | 0.308 | 0.339 | 0.288 | 0.316 | 0.479 | 0.357 | 0.386 | 0.498 | 0.302 | 0.884 | 0.805 | 0.905 | 0.858 | 0.804 | 0.693
7 | 201T | 1.11 | 1.03 | 1.09 | 0.85 | 0.323 | 0.354 | 0.336 | 0.335 | 0.297 | 0.588 | 0.529 | 0.476 | 0.434 | 0.44 | 0.834 | 0.741 | 0.733 | 0.731 | 0.747 | 0.878
8 | LCLC-103H | 1 | 0.95 | 0.966 | 0.986 | 0.431 | 0.552 | 0.474 | 0.473 | 0.481 | 0.418 | 0.525 | 0.31 | 0.474 | 0.513 | 0.462 | 0.461 | 0.364 | 0.476 | 0.476 | 0.85
